From patent US20070026431A1, “Modulation of MAPK-mediated phosphorylation and/or FBXW8-mediated ubiquitinylation of cyclin D1 in modulation of cellular proliferation” (priority 2005, published 2007) come the findings set out here.

For one test, the system named is cyclin D1 protein. Nature of the test: Pulse-chase analysis of cyclin D1 protein in HCT 116 cells. Conditions: HCT 116; 5 μM BIO 24 hours. It counts as cell-based, human. How it is done: FIG. 11 illustrates that ERK/MAPK is identified as the major kinase that is responsible for the stability of cyclin D1 protein. Panels A-F: Pulse-chase analysis of cyclin D1 protein in HCT 116 cells after exposure to the MEK inhibitor U0126 (A-C) or the GSK3 inhibitor BIO (D-F). Exponentially growing HCT 116 cells were treated with either DMSO or 10 μM of U0126 (A-C) for 30 minutes, or DMSO or 5 μM of BIO (D-F) for 24 hours. Panels A and D: Cells were pulse-labeled with ^35S-methionine for 1 hour. Subsequently these cells were chased with cold methionine for the indicated times, and then lysed respectively. Cyclin D1 was immunoprecipitated and then analyzed with SDS-PAGE. Autoradiography was performed. Levels of metabolically labeled-cyclin D1 were estimated by quantitative scanning using the Quantity One (Bio-Rad) software and blotted on the graph to determine the half-life of cyclin D1. […]
FIG. 18 illustrates that knockdown of FBXW8, or its partner CUL1 or CUL7 expression through siRNA stabilizes cyclin D1 expression in HCT 116 colon cancer cells. […] Cyclin D1 was immunoprecipitated and then analyzed with SDS-PAGE. Levels of metabolically labeled-cyclin D1 were estimated by quantitative scanning using the Quantity One software (Bio-Rad) and blotted on the graph to determine the half-life of cyclin D1 (D).
Pulse-Chase Analysis. […] Cyclin D1 was immunoprecipitated and then analyzed with SDS-PAGE. […]

Test [1] concerns cyclin D1 protein (Thr286 phosphorylation). Nature of the test: Western blot of total cyclin D1 and pThr286 in HCT 116 cells after U0126 or GSK3 inhibitor. The format is cell-based, human. Conditions: cycling HCT 116; GSK3α/β inhibitor 24 hours. How it is done: (§1) FIG. 11 illustrates that ERK/MAPK is identified as the major kinase that is responsible for the stability of cyclin D1 protein. Panels A-F: Pulse-chase analysis of cyclin D1 protein in HCT 116 cells after exposure to the MEK inhibitor U0126 (A-C) or the GSK3 inhibitor BIO (D-F). Exponentially growing HCT 116 cells were treated with either DMSO or 10 μM of U0126 (A-C) for 30 minutes, or DMSO or 5 μM of BIO (D-F) for 24 hours. Panels A and D: Cells were pulse-labeled with ^35S-methionine for 1 hour. Subsequently these cells were chased with cold methionine for the indicated times, and then lysed respectively. Cyclin D1 was immunoprecipitated and then analyzed with SDS-PAGE. Autoradiography was performed. Levels of metabolically labeled-cyclin D1 were estimated by quantitative scanning using the Quantity One (Bio-Rad) software and blotted on the graph to determine the half-life of cyclin D1. Panels B and E: Western blot analysis. The membrane was blotted with a cyclin D1 Thr286 phosphorylation specific (pThr286), total cyclin D1, a phosphorylation specific ERK, and total ERK antibodies (B), or a pThr286, cyclin D1, a GSKα/β phosphorylation specific, and GSK3β antibodies (E). Panels C and F: Cell cycle distributions were shown. Panel G: Western blot analysis following transfection of various forms of HA-tagged cyclin D1 expression vectors in both NIH 3T3 mouse fibroblast (left) and HCT 116 colon cancer (right) cells. In lane 5 and 10, cells were treated with 5 μM of BIO for further 24 hours following transfection of the ΔD CD1 mutant.
Immunoblotting Analysis. […] SDS-PAGE was described previously (Tetsu and McCormick, 2003).
To determine the contribution of ERK/MAPK to the stability of cyclin D1 in cancer cells, MAPK activity was inhibited with the MEK inhibitor U0126 (Favata et al., 1998. J Bio Chem. 273, 18623-32; Davies et al., 2000. Biochem J. 351, 95-105). Exponentially growing HCT 116 colon cancer cells were treated with U0126 for 30 minutes (FIG. 11, Panels A-C).
In contrast, no effect on phosphorylation status and stability of cyclin D1 protein through inhibition of GSK3α/β ([…], Panels D-F) were detected. […] Cycling HCT 116 colon cancer cells were treated with BIO for 24 hours (FIG. 11, Panels D-F). A phosphorylation specific antibody to GSK3α and β was used to measure their endogenous activities because phosphorylations of GSK3α at Tyr279 and GSK3β at Tyr216 are intramolecular autophosphorylation events in the cells. Thus, phosphorylation status reflects their kinase activities (Cole et al., 2004. Biochem J. 377, 249-55).

Another test concerns GSK3α/β. Nature of the test: Phosphorylation-specific blot for GSK3α/β, HCT 116 cells. The format is cell-based, human. Conditions: BIO 24 hours. Here is the method: as §1, with “Panel G: Western blot analysis following transfection of various forms of HA-tagged cyclin D1 expression vectors in both NIH 3T3 mouse fibroblast (left) and HCT 116 colon cancer (right) cells. In lane 5 and 10, cells were treated with 5 μM of BIO for further 24 hours following transfection of the ΔD CD1 mutant.” left out
In contrast, no effect on phosphorylation status and stability of cyclin D1 protein through inhibition of GSK3α/β (FIG. 14, Panels D-F) were detected. […]

In test [2] the test system is cyclin D1 Thr286 phosphorylation. Nature of the test: Thr286 phosphorylation of transfected ΔD cyclin D1 after BIO, HCT 116 cells. It counts as cell-based, human. The note with it: 5 μM BIO 24 hours after transfection. The source says: (§2) FIG. 9 illustrates that MAPK directly binds to cyclin D1 through the MAPK docking site (D-domain) within cyclin D1 and phosphorylates it specifically at Thr286. Panel A: p42 ERK2-associated GST-cyclin D1 (CD1) in vitro kinase assays (upper panels). Purified ERK2 phosphorylates cyclin D1 in vitro. Immuno-blotting (IB) analyses stained with a GST antibody (lower panels) were provided as a reference to show loading conditions of various forms of GST-CD1 fusion proteins. (A) GST alone (lane 1), GST-human (h) CD1 amino acids (A.A.) from 165 to 295 (165-295, lane 2), GST-human (h) or mouse (m) CD1 A.A. from 255 to 295 (255-295, lane 3 and 4) were used. Panel B: Western blot analysis following transfection of various forms of HA-tagged cyclin D1 expression vectors in both NIH 3T3 mouse fibroblast (left) and HCT 116 colon cancer (right) cells. In lane 5 and 10, Cells were treated with 5 μM of a highly specific GSK3β inhibitor BIO for further 24 hours following transfcetion of the ΔD CD1 mutant.
(§3) FIG. 11 illustrates that ERK/MAPK is identified as the major kinase that is responsible for the stability of cyclin D1 protein. […] Cyclin D1 was immunoprecipitated and then analyzed with SDS-PAGE. […] Levels of metabolically labeled-cyclin D1 were estimated by quantitative scanning using the Quantity One (Bio-Rad) software and blotted on the graph to determine the half-life of cyclin D1. […]

Test [3] shares this test system. Nature of the test: Thr286 phosphorylation of transfected ΔD cyclin D1 after BIO, NIH 3T3 cells. It counts as cell-based, mouse. Conditions: 5 μM BIO 24 hours after transfection.
Description: as §2, §3

“Also recorded” adds a separate entry of the source.

For `O=C1Nc2cc(Br)ccc2/C1=C1/Nc2ccccc2/C1=N\O` [BIO], the “half-life of cyclin D1 protein” value with cyclin D1 protein is on record as “no significant difference”. Moreover, the “expression of total cyclin D1 and its phosphorylated protein” value in test [1] is listed as “no significant difference”. The “phosphorylated forms of GSK3α/β” value in the test with GSK3α/β is given as “disappeared”. In addition, the “phosphorylation status of cyclin D1 at Thr286 (ΔD mutant)” value in test [2] is given as “did not show any significant effect; also recorded: minimal effect”; in test [3], “slight change; also recorded: reduction”.
